This test has as its system mammary Tumoral cells MCF-7. The experiment in a line: Anti-proliferative activity against the increase of mammary tumoral cells MCF-7 (ADN by DABA fluorimetry). Format: cell-based. Particulars: Homo sapiens, MCF7, 144 h; MCF-7 cells, SVF medium, 6 days, ADN content; read-out: CI50 in nM (concentration which inhibits by 50% the increase in the MCF 7 cells). As to the method: The cell culture line MCF-7 was maintained in culture in SVF (1) medium at 37° C. in a humid atmosphere containing 5% CO2. The cells at subconfluence were collected by trypsination (0.05% trypsine, 0.02% EDTA) then rinsed by gentle centrifiguation. A sample of the cells in suspension was counted by the Malassez cell. To study the increase, the cells resuspended in SVF medium were innoculated at a rate of 30,000 cells per well in a multiwell plate (24 wells per 2.5 cm^2) 24 hours after the innoculation (Day 0), the test compound was added to the medium in an ethanolic solution (final ethanol concentration is 0.1%) a concentration of 10^-6 M. The control wells received the same concentration of ethanol. The mediums were totally renewed at 48 hours. At the end of the experiment (Day 6), the medium was aspirated and the cells were immediately fixed by 150 μl of methanol after a dose of ADN. The anti-proliferative activity of the products was determined by the capacity to inhibit ADN increase.
ADN is dosed by a fluorimetric method using DABA (3,5-diamino benzoic acid). 150 μl of DABA was added to each well and the plates were incubated for 45 minutes at 56° C. and then 1.5 ml of 1N hydrochloric acid was added. The fluoresence was measured with a fluorimeter (excitement length 400 nM-length of emission wave 500 nM). The amount of ADN per well was evaluated with respect to a standard scale obtained by treating under the same conditions an ADN standard of the calf thymus. The concentration in nM which inhibit by 50% the increase in the MCF 7 cells or CI50 was determined in the same manner with the results of the following Table.
The medium for culture of calf fetal serum (SVF) was prepared as follows: MEM medium (minimal essential medium) to which was added non-essential amino acids (GIBCO), peni-strepto (penicillin 100 U/ml, streptomycine 0.1 mg/ml), 0.1% fungizone, 50 ng/ml of insulin and a 10% final concentration of calf fetal serum free of endrogenic steroids.

With `CN(C)c1ccc([C@H]2C[C@@]3(C)[C@@H](CC[C@@]3(O)c3ccc(N(C)C)cc3)[C@@H]3CCC4=CC(=O)CCC4=C32)cc1` [Example 2, 11β,17α-bis-(4-dimethylamino-phenyl)-Δ^4,9-estradiene-17β-ol-3-one], the IC50 is 500 nM. Take `COc1ccc([C@]2(O)CC[C@H]3[C@@H]4CCC5=CC(=O)CCC5=C4[C@@H](c4ccc(N(C)C)cc4)C[C@@]32C)cc1` [Example 4, 11β-(4-dimethylamino-phenyl)-17α-(4-methoxy-phenyl)-Δ^4,9-estradiene-17β-ol-3-one]: the IC50 turned out to be 400 nM.

The values above are taken from patent publication US4943566A, “Novel 17-aryl-steroids” (Roussel Uclafi, priority 1987, dated 1990).
